Experimental data from the supplement of paper PMC11208160.
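Note: IS621 bridge recombinase in Escherichia coli cells against a fixed T5 target plasmid.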

Assay: recombinant UMI read abundance after kanamycin selection (control-corrected) (log10(CPM+1)); higher = more efficient recombination; extreme values may be limits of the assay; sequences stand for … in AGTGCAGAGAAAATCGGCCAGTTTTCTCTGCCTGCAGTCCGCATGCCGTGGGACCCCTTGGGTTCTAACCTGTTGCCTAGATTTATGCAGCGGACTGCCTTTCTCCCAAAGTGATAAACCGG…AGGTTGGTTTCACT; site = the 11-nt donor
How it was run: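 Under IPTG (0.07 mM) plus kanamycin, or without selection, Escherichia coli carrying a UMI-tagged donor and donor-binding-loop pair library and a target plasmid for the IS621 bridge recombinase were plated in two replicates. Recombinant UMIs were PCR-amplified across the donor–target junction and sequenced. Counts were converted to CPM, averaged over replicates, scaled by control-derived factors and reported as log10(CPM+1).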
In the case of “AAGCACTCATGGACCGGTTTTCCCGGTAATCCGTATTTGGG (site AAGCACGCTCC)”, the “recombinant UMI read abundance (log10)” value is reported as 0.0931. For “CACTCGGCATGGACCGGTTTTCCCGGTAATCCGTATTTGGA (site CACTGGGCTTC)”, the “recombinant UMI read abundance (log10)” value was 0.201. In the case of “CAATCGCCATGGACCGGTTTTCCCGGTAATCCGTATTTGTG (site CAACCGCCTCA)”, the “recombinant UMI read abundance (log10)” value is reported as 0.0282. With “GATCGGACATGGACCGGTTTTCCCGGTAATCCGTATTTGAC (site GATAGGACTGT)” the “recombinant UMI read abundance (log10)” value was 0. In the case of “GGTCCAACATGGACCGGTTTTCCCGGTAATCCGTATTTGTC (site GGTCCAACTAA)”, the “recombinant UMI read abundance (log10)” value is reported as 0.015. In the case of “TAGGAATCATGGACCGGTTTTCCCGGTAATCCGTATTTGTG (site TAGGAATCTCT)”, the “recombinant UMI read abundance (log10)” value is reported as 2.59. With “GTGGAGGCATGGACCGGTTTTCCCGGTAATCCGTATTTGTA (site GTGGAGGCTCA)” the “recombinant UMI read abundance (log10)” value was 0.682. With “CGCAGTACATGGACCGGTTTTCCCGGTAATCCGTATTTGCT (site CGCGGTACTAG)” the “recombinant UMI read abundance (log10)” value was 0.749. For “CTCGGTCCATGGACCGGTTTTCCCGGTAATCCGTATTTGCA (site CCCGGTCCTTG)”, the “recombinant UMI read abundance (log10)” value was 1.6. With “GGCCCAACATGGACCGGTTTTCCCGGTAATCCGTATTTGTA (site GGTCCAACTTA)” the “recombinant UMI read abundance (log10)” value was 0.00413. For “CGGGAGTCATGGACCGGTTTTCCCGGTAATCCGTATTTGCT (site CGGGAGTCTCG)”, the “recombinant UMI read abundance (log10)” value was 2.06. With “ACGAAAACATGGACCGGTTTTCCCGGTAATCCGTATTTGCA (site AGGAAGACTTG)” the “recombinant UMI read abundance (log10)” value was 0. In the case of “CCTAATACATGGACCGGTTTTCCCGGTAATCCGTATTTGGG (site CCTAATACTAC)”, the “recombinant UMI read abundance (log10)” value is reported as 0. With “CAGTCGACATGGACCGGTTTTCCCGGTAATCCGTATTTGGA (site CAGTCGACTCC)” the “recombinant UMI read abundance (log10)” value was 0.0138. In the case of “CCCAATACATGGACCGGTTTTCCCGGTAATCCGTATTTGGC (site CCGAATACTGC)”, the “recombinant UMI read abundance (log10)” value is reported as 0. For “GCTACTCCATGGACCGGTTTTCCCGGTAATCCGTATTTGCC (site GCTACTCCTGG)”, the “recombinant UMI read abundance (log10)” value was 0. For “AGCACTACATGGACCGGTTTTCCCGGTAATCCGTATTTGAC (site AGGACTACTGT)”, the “recombinant UMI read abundance (log10)” value was 0.927. For “GAAGATTCATGGACCGGTTTTCCCGGTAATCCGTATTTGAT (site GAAGATTCTAC)”, the “recombinant UMI read abundance (log10)” value was 0.00538. With “ACCAGCTCATGGACCGGTTTTCCCGGTAATCCGTATTTGTC (site ACCAGCTCTGA)” the “recombinant UMI read abundance (log10)” value was 2.47. For “CCGTTAGCATGGACCGGTTTTCCCGGTAATCCGTATTTGTG (site CCGTAAGCTCA)”, the “recombinant UMI read abundance (log10)” value was 0.00568. In the case of “CTAGTAGCATGGACCGGTTTTCCCGGTAATCCGTATTTGAC (site CTAGTATCTGT)”, the “recombinant UMI read abundance (log10)” value is reported as 2.74. With “CTCCCTACATGGACCGGTTTTCCCGGTAATCCGTATTTGAC (site CTCCCTACTTT)” the “recombinant UMI read abundance (log10)” value was 0.415. For “AGGTACGCATGGACCGGTTTTCCCGGTAATCCGTATTTGCC (site AGGTACGCTGG)”, the “recombinant UMI read abundance (log10)” value was 2.36. In the case of “CGTGAGGCATGGACCGGTTTTCCCGGTAATCCGTATTTGCC (site CGTGAGGCTGG)”, the “recombinant UMI read abundance (log10)” value is reported as 0.525. In the case of “CAAGCGACATGGACCGGTTTTCCCGGTAATCCGTATTTGTG (site CAAGCGCCTCA)”, the “recombinant UMI read abundance (log10)” value is reported as 0.00397. For “CATCTCGCATGGACCGGTTTTCCCGGTAATCCGTATTTGCA (site CATCTCGCTTG)”, the “recombinant UMI read abundance (log10)” value was 0.985. For “ACTGAGACATGGACCGGTTTTCCCGGTAATCCGTATTTGGT (site ATTGAGACTAC)”, the “recombinant UMI read abundance (log10)” value was 0.541. For “TAAGCTGCATGGACCGGTTTTCCCGGTAATCCGTATTTGAG (site TAAGCTGCTCT)”, the “recombinant UMI read abundance (log10)” value was 1.32. For “GACGATTCATGGACCGGTTTTCCCGGTAATCCGTATTTGTT (site GATGATTCTAA)”, the “recombinant UMI read abundance (log10)” value was 0.263. In the case of “AGGTTGACATGGACCGGTTTTCCCGGTAATCCGTATTTGCG (site AGGTTGACTCG)”, the “recombinant UMI read abundance (log10)” value is reported as 2. In the case of “CCATTAGCATGGACCGGTTTTCCCGGTAATCCGTATTTGTG (site CCGTTAGCTCA)”, the “recombinant UMI read abundance (log10)” value is reported as 0.0308. In the case of “GGTCACGCATGGACCGGTTTTCCCGGTAATCCGTATTTGTC (site GGTCACGCTGA)”, the “recombinant UMI read abundance (log10)” value is reported as 2.56. With “GCTAGAACATGGACCGGTTTTCCCGGTAATCCGTATTTGGC (site GCTAGAACTGC)” the “recombinant UMI read abundance (log10)” value was 2.02. With “TGCACCGCATGGACCGGTTTTCCCGGTAATCCGTATTTGCG (site TACACCGCTCG)” the “recombinant UMI read abundance (log10)” value was 0.0133. With “TGCATCCCATGGACCGGTTTTCCCGGTAATCCGTATTTGAA (site TGCATCCCTTT)” the “recombinant UMI read abundance (log10)” value was 0.335. In the case of “GAGTTTCCATGGACCGGTTTTCCCGGTAATCCGTATTTGCG (site GAGTTTCCTCG)”, the “recombinant UMI read abundance (log10)” value is reported as 0.572. With “GTGGAGACATGGACCGGTTTTCCCGGTAATCCGTATTTGTG (site GTGGAGTCTCA)” the “recombinant UMI read abundance (log10)” value was 1.99. For “GAGAAAACATGGACCGGTTTTCCCGGTAATCCGTATTTGCT (site GAGAAAACTAG)”, the “recombinant UMI read abundance (log10)” value was 1.16. With “AACGTTTCATGGACCGGTTTTCCCGGTAATCCGTATTTGCT (site AACGTTTCTAG)” the “recombinant UMI read abundance (log10)” value was 2.48. In the case of “CCCAAAGCATGGACCGGTTTTCCCGGTAATCCGTATTTGAT (site CCCAAAGCTAT)”, the “recombinant UMI read abundance (log10)” value is reported as 0.774. For “CTAGTATCATGGACCGGTTTTCCCGGTAATCCGTATTTGGC (site CTAGTATCTGC)”, the “recombinant UMI read abundance (log10)” value was 3.32. In the case of “CCCCATTCATGGACCGGTTTTCCCGGTAATCCGTATTTGGA (site CCCCATTCTTC)”, the “recombinant UMI read abundance (log10)” value is reported as 0.274. With “TTTGCGGCATGGACCGGTTTTCCCGGTAATCCGTATTTGCC (site TTTGCGGCTGG)” the “recombinant UMI read abundance (log10)” value was 0. For “GCAGATTCATGGACCGGTTTTCCCGGTAATCCGTATTTGTT (site GCAGATTCTAA)”, the “recombinant UMI read abundance (log10)” value was 2.97. For “CCGTTAGCATGGACCGGTTTTCCCGGTAATCCGTATTTGTG (site CCGTTAACTCA)”, the “recombinant UMI read abundance (log10)” value was 0.0199. In the case of “CGAGCGACATGGACCGGTTTTCCCGGTAATCCGTATTTGTT (site CGAGCGACTAA)”, the “recombinant UMI read abundance (log10)” value is reported as 1.49. With “GTAGGTACATGGACCGGTTTTCCCGGTAATCCGTATTTGAC (site GCAGGTACTGT)” the “recombinant UMI read abundance (log10)” value was 0.704. In the case of “GACTGGACATGGACCGGTTTTCCCGGTAATCCGTATTTGAC (site GACTGGACTGT)”, the “recombinant UMI read abundance (log10)” value is reported as 1.89. For “CCCTTGTCATGGACCGGTTTTCCCGGTAATCCGTATTTGGG (site CCCTTATCTCC)”, the “recombinant UMI read abundance (log10)” value was 0.393. For “TCGGGAACATGGACCGGTTTTCCCGGTAATCCGTATTTGAT (site TCGGGAACTAT)”, the “recombinant UMI read abundance (log10)” value was 1.61. For “CCGTTTACATGGACCGGTTTTCCCGGTAATCCGTATTTGTT (site CCGTTTACTAT)”, the “recombinant UMI read abundance (log10)” value was 0. With “CAGTCGACATGGACCGGTTTTCCCGGTAATCCGTATTTGGG (site CCGTCGACTCC)” the “recombinant UMI read abundance (log10)” value was 0.00307. With “AAATTCCCATGGACCGGTTTTCCCGGTAATCCGTATTTGCT (site GAATTCCCTAG)” the “recombinant UMI read abundance (log10)” value was 0.544. With “GAGAACCCATGGACCGGTTTTCCCGGTAATCCGTATTTGGA (site GAGAACCCTTC)” the “recombinant UMI read abundance (log10)” value was 0. In the case of “AACCGGTCATGGACCGGTTTTCCCGGTAATCCGTATTTGGA (site AACCGGTCTTC)”, the “recombinant UMI read abundance (log10)” value is reported as 0.422. With “CAAATTTCATGGACCGGTTTTCCCGGTAATCCGTATTTGTG (site CAAATTTCTCA)” the “recombinant UMI read abundance (log10)” value was 0.763. For “CCGGAAGCATGGACCGGTTTTCCCGGTAATCCGTATTTGAC (site CCGGAAGCTGT)”, the “recombinant UMI read abundance (log10)” value was 0.161. With “GTAGGTACATGGACCGGTTTTCCCGGTAATCCGTATTTGAC (site GTTGGTACTGT)” the “recombinant UMI read abundance (log10)” value was 1.96. With “GAGAAAACATGGACCGGTTTTCCCGGTAATCCGTATTTGCT (site GCGAAAACTAG)” the “recombinant UMI read abundance (log10)” value was 0.0152. With “CTATTACCATGGACCGGTTTTCCCGGTAATCCGTATTTGAG (site CTATTACCTCT)” the “recombinant UMI read abundance (log10)” value was 0.00551. In the case of “GTTAAAACATGGACCGGTTTTCCCGGTAATCCGTATTTGGC (site GTTATAACTGC)”, the “recombinant UMI read abundance (log10)” value is reported as 0. For “GGATGGACATGGACCGGTTTTCCCGGTAATCCGTATTTGCC (site GGATGGACTGG)”, the “recombinant UMI read abundance (log10)” value was 2.47. With “CGAGGAACATGGACCGGTTTTCCCGGTAATCCGTATTTGTT (site CGGGGAACTAA)” the “recombinant UMI read abundance (log10)” value was 0.474. In the case of “AGGAAGACATGGACCGGTTTTCCCGGTAATCCGTATTTGCA (site AGGGAAACTTG)”, the “recombinant UMI read abundance (log10)” value is reported as 0. With “TCTTTGGCATGGACCGGTTTTCCCGGTAATCCGTATTTGTG (site TGTTTGGCTCA)” the “recombinant UMI read abundance (log10)” value was 0.0149. For “CTTCTCTCATGGACCGGTTTTCCCGGTAATCCGTATTTGAA (site CTTCTCTCTTG)”, the “recombinant UMI read abundance (log10)” value was 0. In the case of “ACAGAGACATGGACCGGTTTTCCCGGTAATCCGTATTTGCG (site CCAGAGACTCG)”, the “recombinant UMI read abundance (log10)” value is reported as 2.19. With “CCGACATCATGGACCGGTTTTCCCGGTAATCCGTATTTGCT (site CAGACATCTAG)” the “recombinant UMI read abundance (log10)” value was 0. For “CCGTTTGCATGGACCGGTTTTCCCGGTAATCCGTATTTGCT (site CCGTTTGCTAG)”, the “recombinant UMI read abundance (log10)” value was 0. For “AAAAGTCCATGGACCGGTTTTCCCGGTAATCCGTATTTGTA (site CAAAGTCCTTA)”, the “recombinant UMI read abundance (log10)” value was 0.48. In the case of “TAGCCTTCATGGACCGGTTTTCCCGGTAATCCGTATTTGTT (site TAGCCTTCTAG)”, the “recombinant UMI read abundance (log10)” value is reported as 0.0127. For “CCCTTGCCATGGACCGGTTTTCCCGGTAATCCGTATTTGCC (site CCCTGGCCTGG)”, the “recombinant UMI read abundance (log10)” value was 0. With “CACGGCCCATGGACCGGTTTTCCCGGTAATCCGTATTTGAT (site CACGGCCCTAC)” the “recombinant UMI read abundance (log10)” value was 0.0396. For “GAAGATCCATGGACCGGTTTTCCCGGTAATCCGTATTTGTT (site GAAGATGCTAA)”, the “recombinant UMI read abundance (log10)” value was 0.00882. For “CTCCCTACATGGACCGGTTTTCCCGGTAATCCGTATTTGAG (site CTCCCTACTCG)”, the “recombinant UMI read abundance (log10)” value was 0.00797.
